In PubChem BioAssay (NCI):
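Assay format: 96-well plates, 48-hour exposure. At the GI50, growth is halved. TGI is the concentration that stops growth completely.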

Tests used:
Experiment in all cases: NCI anticancer screen, dose series, 48 h
SF-268 CNS = test system: SF-268 CNS
RPMI-8226 leukemia = test system: RPMI-8226 leukemia
CAKI-1 renal = test system: CAKI-1 renal
MDA-MB-231 breast = test system: MDA-MB-231 breast
K-562 leukemia = test system: K-562 leukemia
HCT-116 colon = test system: HCT-116 colon
SF-539 CNS = test system: SF-539 CNS
MCF7 breast = test system: MCF7 breast
OVCAR-5 ovarian = test system: OVCAR-5 ovarian
A549 NSCLC = test system: A549 NSCLC

| Structure (SMILES) | GI50 (SF-268 CNS) [µM] | TGI (SF-268 CNS) [µM] | GI50 (RPMI-8226 leukemia) [µM] | TGI (RPMI-8226 leukemia) [µM] | GI50 (CAKI-1 renal) [µM] | TGI (CAKI-1 renal) [µM] | GI50 (MDA-MB-231 breast) [µM] | TGI (MDA-MB-231 breast) [µM] | GI50 (K-562 leukemia) [µM] | TGI (K-562 leukemia) [µM] | GI50 (HCT-116 colon) [µM] | TGI (HCT-116 colon) [µM] | GI50 (SF-539 CNS) [µM] | TGI (SF-539 CNS) [µM] | GI50 (MCF7 breast) [µM] | TGI (MCF7 breast) [µM] | GI50 (OVCAR-5 ovarian) [µM] | TGI (OVCAR-5 ovarian) [µM] | GI50 (A549 NSCLC) [µM] | TGI (A549 NSCLC) [µM] |
| --- | --- | --- | --- | --- | --- | --- | --- | --- | --- | --- | --- | --- | --- | --- | --- | --- | --- | --- | --- | --- |
| CCN(CC)CCCC(C)NC(=S)N/N=C(\C)c1ccccn1 (configuration not stated) | 3.19 | > 100 | 5.84 | > 100 | 4.56 | > 100 | 0.475 | > 100 | 3.08 | > 100 | 2.3 | > 100 | 3.33 | 82 | 2.94 | > 100 | 4.89 | > 100 | 3.75 | > 100 |
| C/C=C\C(C)=C/C(C)C(=O)CC(O)CC1CC(=O)NC(=O)C1 (configuration not stated) |  | > 100 |  | > 76.6 |  | > 67.5 |  | > 100 |  | > 100 |  | > 100 |  | > 100 |  | > 100 |  | > 100 |  | > 100 |
| COc1ccc(/C(C)=C(\c2ccc(Cl)cc2)c2ccc(OCCN3CCCCC3)cc2)cc1F | 5.96 | > 16.7 | 3.49 | 8.49 | 3.14 | 6.48 | 3.04 | 5.71 | 0.698 | 5.93 | 2.04 | 5.14 | 2.42 | 4.67 | 3.34 | 8.24 | 3.06 | 9.45 | 4.43 | > 16.7 |
| O=C1C2=C(Nc3cc([N+](=O)[O-])ccc3N2)OC1c1c[nH]c2ccc(COc3ccccc3)cc12 (configuration not stated) |  | > 100 |  | > 100 |  | > 100 |  | > 100 |  | > 100 |  | > 100 |  | > 100 |  | > 100 |  | > 100 |  | > 100 |
| COc1cc(C2C3=C(COC3=O)N(CCO)c3cc4c(cc32)CCC4)cc(OC)c1OC (configuration not stated) | 0.0934 |  | 0.135 | > 12.2 | 0.484 | > 32.5 | 0.137 | > 32.5 | 0.0955 | > 10.4 | 0.0919 | 0.409 | 0.091 | 0.663 | 0.0986 | 23.8 | 0.164 | > 32.5 | 0.13 | > 32.5 |
| Cn1c(N)cc(=O)nc1N |  | > 100 |  | > 100 |  | > 100 |  | > 100 |  | > 100 |  | > 100 |  | > 100 |  | > 100 |  | > 100 |  | > 100 |
| Nc1nc(N)c2nn(-c3ccc(C(=O)O)cc3)nc2n1 |  | > 100 |  | > 100 |  | > 100 |  | > 100 |  | > 100 |  | > 100 |  | > 100 |  | > 100 |  | > 100 |  | > 100 |
| Nc1cc2[nH]c(=O)c3cc(Cl)ccc3c2cc1Cl |  | 45.4 |  | > 100 |  | 40.8 |  | 68.6 |  | > 100 |  | 68.8 |  | 25.8 |  | 13.8 |  | > 100 |  | 44.7 |
| CCCC1C2=C(C(=O)OC2=O)C2C(CC)CC3=C(C(=O)OC3=O)C12 (configuration not stated) |  | > 100 |  | > 100 |  | > 100 |  | > 100 |  | > 100 |  | > 100 |  | > 100 |  | > 100 |  | > 100 |  | > 100 |
| O=C(NC(c1ccccc1)C(O)C(=O)OCc1ccc2c(c1)C(=O)c1ccccc1C2=O)c1ccccc1 (configuration not stated) |  | 70.1 |  | > 68.1 |  | 20.1 |  | 30.6 |  | > 100 |  | 39.1 |  | 20.6 |  | > 100 |  | 79.9 |  | 54 |
| CC1SC(c2cccc(Oc3ccccc3)c2)N(CCc2cccs2)C1=O (configuration not stated) | 1.18 | 3.6 | 0.542 | 2.94 | 0.519 | 3.37 | 1.09 | 2.58 | 0.573 | 7.79 | 0.457 | 1.76 | 1.5 | 3.11 | 0.551 | 5.07 | 1.94 | 5.89 | 0.864 | 3.67 |
| COc1cc2c(c(OC)c1OC)-c1c(c3ccc([N+](=O)[O-])cc3c(=O)n1CCCN=[N+]=[N-])C2=O | 14.4 | 80.7 | > 100 | > 100 | 50.3 | > 100 | 19.1 | 56.3 | > 100 | > 100 | 14.2 | 38 | 13.5 | 43.1 | 1.37 | > 100 | > 100 | > 100 | 0.36 | > 100 |
| N#Cc1c(-c2ccc(Cl)cc2)n([O-])c2ccccc2[n+]1=O | 14.6 | 33.8 | 1.99 | 5.11 |  |  | 6.95 | 24.2 | 2 | 4.01 | 3.03 | 11.1 | 17.9 | 36 | 15.9 | > 100 | 16.7 | 30.6 | 22.2 | 55.4 |
